# From PubChem BioAssay AID652207 (The Scripps Research Institute Molecular Screening Center, 2013)
# Active and inactive are the calls of the source.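 Rule for the calls: active = IC50 below 10 µM for blocking the PP1 phosphatase acting on a fluorogenic substrate; inactive = IC50 of 10 µM or more.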
# Molecular target: Serine/threonine-protein phosphatase PP1-alpha catalytic subunit (Homo sapiens) (UniProt P62136)
# Assay: dose-dependent PP1alpha phosphatase inhibition – biochemical, fluorescence, OMFP substrate, set 2, dose response (AID 652207)
# Conditions: purified PP1alpha, OMFP dephosphorylation fluorescence
# Sequence of Serine/threonine-protein phosphatase PP1-alpha catalytic subunit (Homo sapiens) (P62136 whole entry, looked up): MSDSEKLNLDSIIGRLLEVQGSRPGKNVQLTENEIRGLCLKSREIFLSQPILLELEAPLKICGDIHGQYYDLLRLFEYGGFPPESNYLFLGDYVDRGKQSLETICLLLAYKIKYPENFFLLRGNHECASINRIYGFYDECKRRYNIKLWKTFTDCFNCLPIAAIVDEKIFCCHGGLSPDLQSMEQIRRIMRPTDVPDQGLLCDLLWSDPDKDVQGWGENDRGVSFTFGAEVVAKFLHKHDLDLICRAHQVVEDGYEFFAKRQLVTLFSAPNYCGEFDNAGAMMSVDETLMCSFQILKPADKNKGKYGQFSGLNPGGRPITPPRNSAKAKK
row,IC50,Structure (SMILES)
1,1.32 µM,Oc1c(C(c2ccccn2)N2CCOCC2)cc(Cl)c2cccnc12 (stereo unspecified)
2,1.15 µM,CN1CCN(C(c2ccccn2)c2ccc3cccnc3c2O)CC1 (stereo unspecified)

# Second part, the molecule before the results:
row,Structure (SMILES),IC50
1,Oc1c(Cc2ccccn2)ccc2cccnc12,2.64 µM
2,CN1CCN(C(c2nccs2)c2cc(Cl)c3cccnc3c2O)CC1 (stereo unspecified),1.62 µM
3,CN1CCN(C(c2cccs2)c2cc(Cl)c3cccnc3c2O)CC1 (stereo unspecified),8.42 µM
4,CN1CCN(Cc2cc(Cl)c3cccnc3c2O)CC1,inactive
